As a reminder, the EC50 is the concentration at which the effect is half-maximal. Read a low EC50 as higher potency in that assay. As usually defined, the CC50 is the concentration that lowers cell viability or growth by half. Low readings indicate greater toxicity to the cells, high ones lower toxicity to the cells.

The values below come from publication PMC6895199, “A new antiviral scaffold for human norovirus identified with computer-aided approaches on the viral polymerase” (Scientific Reports, 2019).

One data set relates to MNV. Nature of the data set: MNV CPE reduction assay (MTS) in RAW 264.7 cells. Particulars: Norovirus, RAW264.7, in Mus musculus, Table 2, RAW 264.7, range 0.6–100 µM, at least three independent experiments. It counts as cell-based, mouse norovirus (MNV-1.CW1). The procedure, abridged: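 MNV-1.CW1-infected RAW 264.7 cells treated at eight concentrations (0.6–100 µM), 2′-C-methylcytidine as positive control. Viability read by MTS/PMS at OD 498 nm after 2 h; %CPE reduction normalised to uninfected and infected untreated cells, EC50 = concentration protecting 50% of cells from virus-induced CPE.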

A short description of data set [1]: Cytotoxicity by the MTS method on uninfected cells. It counts as cell-based. The following applies: mouse, uninfected RAW 264.7 cells, Table 2, at least three independent experiments. The protocol: Cytotoxicity: The cytotoxicity of the Compounds was evaluated by the MTS method, by exposing uninfected cells to the same concentrations of compounds for 3 days. The %cell viability was calculated as (ODtreated/ODCC) × 100, where ODCC is the OD of uninfected untreated cells and ODtreated are uninfected cells treated with compound. The CC50 was defined as the compound concentration that reduces the number of viable cells by 50%[34].

In the data set on MNV, `O=C(NC(=S)Nc1ccc(N2CCN(C(=O)c3cccs3)CC2)cc1)c1sc2ccccc2c1Cl` [Compound 48, 3-Chloro-N-((4-(4-(thiophene-2-carbonyl)piperazin-1-yl)phenyl)carbamothioyl)benzo[b]thiophene-2-carboxamide, reference compound] yielded an EC50 of 58.2 ± 20.7 µM. The half-maximal cytotoxic concentration (CC50) at 3 days in data set [1] was greater than 100 µM.

For `Cc1ccc(C(=O)NC(=S)Nc2ccc(N3CCN(C(=O)c4cccs4)CC3)cc2)cc1` [Compound 52, 4-Methyl-N-((4-(4-(thiophene-2-carbonyl)piperazin-1-yl)phenyl)carbamothioyl)benzamide], the EC50 with MNV came out at 45.1 ± 10.8 µM. In data set [1], this compound came in with a CC50 at 3 days greater than 100 µM.

Turning to `O=C(NC(=S)Nc1ccc(N2CCN(C(=O)c3nccs3)CC2)cc1)c1sc2ccccc2c1Cl` [Compound 56, 3-Chloro-N-((4-(4-(thiazole-2-carbonyl)piperazin-1-yl)phenyl)carbamothioyl)benzo[b]thiophene-2-carboxamide], the EC50 with MNV amounted to 66.1 ± 12.3 µM. For the same compound, the CC50 at 3 days in data set [1] was greater than 100 µM.
